Tests used:
[1] = system: MDA-MB-435S.luc xenograft; experiment: MDA-MB-435S.luc xenograft, βCG fusion constructs; format: in vivo, Nu/Nu mice; settings: vs baseline and saline controls
Method: Female Nu/Nu mice were injected subcutaneously with a MDA-MB-435S.luc/Matrigel HC suspension (1×10^6 cells). In brief, treatment started on day 13 after tumor cell injection and continued on day 19 and 25. […] The doses for weekly injections were 5, 1 and 0.01 mg/kg body weight, given as a bolus single injection.
The effect of cytolytic peptide injections on the primary tumors is illustrated in FIG. 8. In brief, the FIGS. 8A-8C show tumor volume during the course of the study for each individual peptide. FIGS. 8D-8G show tumor characteristics at necropsy; tumor volume (D), tumor weight (E), live tumor cells (F), tumor conditions (G).
Treatment efficacy was calculated as difference between measurements at the beginning of treatment compared to the measurement at the end of study (FIG. 8H-8I). […] Viability of cells in the tumors was determined at the end of the study when tumors were measured for luciferase activity.

OVCAR-3 = experiment: Cytotoxicity in OVCAR-3 ovarian cancer cells; format: cell-based; settings: OVCAR-3 ovarian cancer cell line; read-out: IC50 in Human Cancer Cell Lines
Method: (§1) MDA-MB-435S.luc cells were grown in Leibovitz's L 15 medium, 10% fetal bovine serum, 0.01 mg/ml bovine insulin, 100 IU/ml penicillin, 100 microg/ml streptomycin. The cells were cultured in tight closed flasks. The incubations were conducted using 96 well plates at 10,000 cells per well. Cells were typically seeded into 96 well plates and media was replaced after 48 hours of incubation. Each assay was conducted at increasing concentrations of 0, 0.001, 0.01, 0.05, 0.1, 0.5, 1, 2, 5, 10 and 100 micromolar doses of lytic peptide-binding domain conjugate. Each lytic peptide-binding domain conjugate provided in lyophilized form and was freshly dissolved in saline and added to cells. The duration of incubation was typically 24 h, and cell viability assays were conducted using formazan conversion assays (MTT assay). Controls contained saline or 0.1% triton as reference for 0 and 100% cell death, respectively.
(§2) To ascertain the IC50 of various fusion constructs on different human cancer cell lines compared to cisplatinum, IC50 of fusion constructs were evaluated as in Table 3.

SKOV-3 = experiment: Cytotoxicity in SKOV-3 ovarian cancer cells; format: cell-based; settings: SKOV-3 ovarian cancer cell line; read-out: IC50 in Human Cancer Cell Lines
Method: as §1, §2

LNCaP = experiment: Cytotoxicity in LNCaP prostate cancer cells; format: cell-based; settings: LNCaP prostate cancer cell line; read-out: IC50 in Human Cancer Cell Lines
Method: as §1, §2

MDA-MB-435 cells = experiment: Fluorescence microscopy of MDA-MB-435 cells; format: cell-based, human; settings: 10 μM, 5 minutes exposure
Method: In brief, human melanoma cells (MDA-MB-435, passage #252) were seeded onto culture dishes. The following markers were introduced prior to adding EP-100; DRAQ5™(Alexis Corporation)—blue—was used for staining of the nucleus and Mito Tracker® Red CMXRos (M7512) (Molecular Probes, Inc. OR) were applied for visualizing intact mitochondria. Cell membranes were stained with wheat germ alexa fluor green conjugates (Molecular Probes, Inc. OR).
Cells were loaded first with Mitotracker dye, according to the manufacturer's recommendation. Phor 18-LHRH (338613) reconstituted in saline was added at a final concentration of 10 μM and incubated for 5-10 minutes. Culture dishes with saline only served as controls. The supernatant was removed, and the remaining cells prepared for fluorescence microscopy imaging.

MDA-MB-435S xenograft = experiment: MDA-MB-435S xenograft, multiple dose regimen; format: in vivo, Nu/Nu mice; settings: for tumor free mice: multiple intravenous injections
Method: In order to determine the minimal effective dose necessary to reduce MDA-MB-435S xenograft weights in a multiple dose regimen, Nu/Nu female mice, outbred strain, age 8 weeks (Charles River), were injected (s.c.) into the interscapular region with a MDA-MB-435S (passage # 253)/Matrigel suspension (2×10^6 cells/mouse) as previously described above. Phor 18-LHRH (338613) (ID: 338613 lot #P080401) (0.002, and 0.2 mg/kg) were reconstituted in USP saline prior to dosing. The doses were given as a single bolus intravenous injection via lateral tail vein on days 15, 16, 17, 20, 21, 22, 23, 27, 28, 29, 30, 33, 34, 35, 36, 37, 38, 40, 41, 42 after tumor cell inoculation. Saline injections served as control groups.
Each treatment group consisted of 16 mice. During the entire study tumor volumes were recorded twice weekly. Final necropsy was conducted on day 45 after tumor cell injection. […] due to occlusion of the tail vein in most mice. At study endpoint body weight, tumor weights were determined and fixed in phosphate buffered 10% formalin.

immune cells in ascites = experiment: Immune cell profiling (FACS) of ID8 ascites; format: in vivo, C57BL/6 mice
Method: Immune Profiling Assay—Immunophenotypic analyses of splenocytes and single cell suspensions from tumors were assessed by flow cytometry. Abs to stain for MDSCs were CD11b-APC (clone M1/70; BD Biosciences), Ly6G-FITC (clone 1A8; BD Biosciences) and Ly6C-PE (clone AL-21; BD Biosciences). For T-cell activation markers, cells were stained with Ab specific for CD4-PE-Cy7 (clone RM4-5; BD Biosciences), CD8-PE-Cy7 (clone 53-6.7; BD Biosciences), CD62L-PE (clone MEL-14; BD Biosciences) and CD44-FITC (clone IM7; Biolegend). Cells were incubated on ice for 30 min, washed and fixed in phosphate buffered saline (PBS) containing 1% formalin for flow cytometric analysis on an LSRII flow cytometer (BD Biosciences).
Immune cell profiling was conducted on ascites (N=3) and tumor tissue (N=3) by processing the samples by the following method and analyzed through Fluorescent Activated Cell Sorting (FACS), see Table 8. Cells were incubated for 30 minutes on ice, washed and fixed in phosphate buffered saline containing 1% formalin for flow cytometric analysis on an LSRII flow cytometer.

CD8+ T cells = experiment: T cell activation by condition media from EP-100-treated ID8 cells; format: cell-based, mouse; settings: cells treated with condition media (CM) from EP-100-treated cells; controls 12.3±1.1, p=0.04

Sequence: KFAKFAKKFAKFAKKFAK [Phor18, reference compound]
- tumor volume [1]: ineffective in reducing the xenograft volume

Sequence: KFAKFAKKFAKFAKKFAKQHWSYGLRPG [Phor18-LHRH]
- IC50 (OVCAR-3): 3000 nM
- IC50 (SKOV-3): 11.8 ± 0.3 µM
- IC50 (LNCaP): 1550 ± 80 nM
- plasma membrane, fluorescence microscopy (MDA-MB-435 cells): disintegration of the plasma membrane
- tumor free mice (MDA-MB-435S xenograft; 0.002 mg/kg): 6/23
- tumor free mice (MDA-MB-435S xenograft; 0.2 mg/kg): 1/20
- histological examination of H&E stained tumors (MDA-MB-435S xenograft; 0.002 and 0.2 mg/kg, multiple injection regimen): eradication of tumor cells
- increase of CD8+ T/Treg ratio (immune cells in ascites): 7 fold
- Monocytic myeloid suppressor cells (mMDSC) (immune cells in ascites; % of CD45+ cells, controls 0.62±0.08%): 0.21±0.01%
- CD8+ T cells (immune cells in ascites; % of CD45+ cells, controls 1.9±0.3%): 8.9±2.4%
- B cells (immune cells in ascites; % of CD45+ cells, controls 9.8±1.8%): 1.5±0.14%
- Natural killer (NK) cells (immune cells in ascites; % of CD45+ cells, controls 10.3±0.8%): 10.2±0.08%
- Dendritic cells (DC) (immune cells in ascites; % of CD45+ cells, controls 18.5±1.1%): 15.1±0.2%
- Macrophages (immune cells in ascites; % of CD45+ cells, controls 23.8±5.1%): 25.6±0.7%
- CD45+ cell fraction of life cells (immune cells in ascites; Mean±SEM, controls 10.5±1.8%): 15.6±2.1%
- ratio of CD8+ T cells to regulatory T cells (immune cells in ascites; controls 2.6±0.6): 17.32±4.1
- proportion of CD8+ T cells (CD8+ T cells): 17.3±1.1

From patent publication US20240228542A1, “LYTIC DOMAIN FUSION CONSTRUCTS, CHECKPOINT INHIBITORS, AND METHODS OF MAKING AND USING SAME” (A28 Therapeutics Inc., priority 2020, published 2024)
